In PubChem BioAssay (NCI) one finds GI50 and TGI data, which are given here for 13 compounds.

Among the test systems are 786-0 renal; A549 NSCLC; BT-549 breast; HOP-92 NSCLC; LOX IMVI melanoma; MOLT-4 leukemia; RPMI-8226 leukemia; OVCAR-5 ovarian; SK-MEL-2 melanoma; SW-620 colon.
What all share (experiment): inhibition of tumour cell growth, NCI panel, 48 h

Each structure is given as a SMILES string. Several values for one entry are separate records, joined by “and”; a condition that tells them apart may be missing. Equal values may be shown once.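 Interpolation was linear, between the two tested concentrations surrounding the appropriate level; five concentrations were tested over 48 hours in 96-well plates. At the GI50, growth is halved. Definition used: TGI = concentration required for complete inhibition of growth.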

`S=P(N1CC1)(N1CC1)N1CC1`: the GI50 is 5.33 µM and 52.4 µM in the assay on 786-0 renal; 10.2 µM and 84 µM in the assay with A549 NSCLC; 224 µM in the assay on BT-549 breast; 25.2 µM and 168 µM in the assay with HOP-92 NSCLC; 7.14 µM and 54.5 µM in the assay with LOX IMVI melanoma; 1.27 µM in the assay on MOLT-4 leukemia. In the assay on RPMI-8226 leukemia, the GI50 was 28 µM. The TGI in the assay on 786-0 renal is 31.2 µM and 187 µM and 306 µM; in the assay on BT-549 breast, 507 µM and 445 µM; in the assay on HOP-92 NSCLC, 50.2 µM and 376 µM and 345 µM; in the assay with LOX IMVI melanoma, 42 µM and 307 µM and 294 µM; in the assay on MOLT-4 leukemia, 53.4 µM and 334 µM and 54.9 µM; with RPMI-8226 leukemia, 92.3 µM and 792 µM and 706 µM.
`O=c1c2cc(Cl)ccc2sc2cccc(Cl)c12`: the TGI with 786-0 renal, in the assay on A549 NSCLC, with HOP-92 NSCLC, in the assay with LOX IMVI melanoma, with MOLT-4 leukemia and with OVCAR-5 ovarian was more than 100 µM throughout. Moreover, the TGI in the assay with RPMI-8226 leukemia, with SK-MEL-2 melanoma and in the assay on SW-620 colon was more than 100 µM throughout.
In the case of `CC(C)(c1ccccc1)c1ccc(OC#N)cc1`, the TGI in the assay with 786-0 renal was more than 100 µM; in the assay on A549 NSCLC it was more than 100 µM; in the assay on HOP-92 NSCLC, more than 100 µM; in the assay with LOX IMVI melanoma, more than 58.9 µM; in the assay with MOLT-4 leukemia, more than 100 µM; in the assay with OVCAR-5 ovarian it was more than 100 µM. Moreover, the results for the TGI with RPMI-8226 leukemia, in the assay with SK-MEL-2 melanoma and with SW-620 colon were more than 70.1 µM, more than 100 µM and more than 100 µM, respectively.
As to `Cc1cccc(C)c1NC(=O)C(=O)Nn1c(NN)nc2ccccc2c1=O`, the TGI with 786-0 renal, with A549 NSCLC, in the assay on HOP-92 NSCLC, in the assay with LOX IMVI melanoma, in the assay on MOLT-4 leukemia and in the assay with OVCAR-5 ovarian was more than 100 µM in each case. Further, the TGI in the assay with RPMI-8226 leukemia, with SK-MEL-2 melanoma and with SW-620 colon was more than 100 µM each time.
`COc1ccccc1NC(=O)CC(=O)N/N=C/c1ccc(N(CCC#N)S(=O)(=O)c2ccccc2)cc1`: the TGI in the assay on 786-0 renal, in the assay with A549 NSCLC, in the assay on HOP-92 NSCLC, in the assay with LOX IMVI melanoma, with MOLT-4 leukemia and with OVCAR-5 ovarian was more than 100 µM throughout. Also, the TGI with RPMI-8226 leukemia, in the assay on SK-MEL-2 melanoma and with SW-620 colon was more than 100 µM throughout.
Take `N#CC1CCCCCCCCCCC(=O)N(CCCl)C1=O` (centres undefined): the TGI with 786-0 renal, in the assay with A549 NSCLC, in the assay on HOP-92 NSCLC, in the assay with LOX IMVI melanoma, with MOLT-4 leukemia and in the assay with OVCAR-5 ovarian was more than 100 µM in each case. In addition, the TGI in the assay on RPMI-8226 leukemia, with SK-MEL-2 melanoma and in the assay with SW-620 colon was more than 100 µM in each case.
Consider `COc1cc2c(cc1OC)/C(=C\c1ccccc1N)C(=O)OC2`, for which the TGI in the assay with 786-0 renal came to 9.96 µM; in the assay on A549 NSCLC it was 60.1 µM; in the assay on HOP-92 NSCLC it was 27.6 µM; in the assay with LOX IMVI melanoma it was 4.18 µM; in the assay on MOLT-4 leukemia, 8.24 µM; with OVCAR-5 ovarian, 35.4 µM. Besides, the TGI was determined as 10.3 µM with RPMI-8226 leukemia, 26.4 µM in the assay with SK-MEL-2 melanoma and 13.9 µM with SW-620 colon.
Turning to `O=C1C(=Cc2c(O)cc(O)cc2O)C(=O)c2ccccc21`, the TGI in the assay with 786-0 renal is more than 56.4 µM; with A549 NSCLC it was more than 100 µM; with HOP-92 NSCLC, more than 58 µM; in the assay on LOX IMVI melanoma, 29.2 µM; in the assay with MOLT-4 leukemia it was more than 81.6 µM; in the assay with OVCAR-5 ovarian, more than 57.7 µM. Further, the TGI is more than 71.9 µM with RPMI-8226 leukemia, more than 56.5 µM in the assay with SK-MEL-2 melanoma and more than 56.5 µM with SW-620 colon.
Consider `CC(=O)OCC1OC(n2c(-c3ccc(C)cc3)cc(-c3ccccc3)c(C#N)c2=O)C(OC(C)=O)C(OC(C)=O)C1OC(C)=O` (centres undefined), for which the TGI in the assay with 786-0 renal, in the assay on A549 NSCLC, in the assay on HOP-92 NSCLC, in the assay on LOX IMVI melanoma, in the assay on MOLT-4 leukemia and with OVCAR-5 ovarian was more than 100 µM in each case. Besides, the TGI in the assay with RPMI-8226 leukemia, in the assay on SK-MEL-2 melanoma and in the assay with SW-620 colon was more than 100 µM throughout.
As to `Cc1cc(C)cc(NC(N)=S)c1`, the TGI with 786-0 renal was more than 100 µM; in the assay with A549 NSCLC it was more than 100 µM; in the assay with HOP-92 NSCLC, more than 100 µM; in the assay on LOX IMVI melanoma, 89.5 µM; with MOLT-4 leukemia it was more than 100 µM; in the assay with OVCAR-5 ovarian, more than 100 µM. Moreover, the TGI in the assay with RPMI-8226 leukemia was more than 100 µM; in the assay with SK-MEL-2 melanoma, more than 100 µM; with SW-620 colon it was 18 µM.
Regarding `COc1cc(C2CC(c3ccc(Nc4ccnc5cc(Cl)ccc45)cc3)=NN2c2ccc(Cl)cc2)cc(OC)c1OC` (centres undefined), the GI50 was 2.88 µM in the assay with 786-0 renal; 4.15 µM in the assay with A549 NSCLC; 2.93 µM in the assay on BT-549 breast; 1.64 µM in the assay on HOP-92 NSCLC; 1.66 µM in the assay on LOX IMVI melanoma; 3.86 µM in the assay on MOLT-4 leukemia. Also, the GI50 in the assay with OVCAR-5 ovarian was 6.08 µM; in the assay on SK-MEL-2 melanoma, 2.35 µM; in the assay with SW-620 colon, 2.55 µM. Further, the TGI in the assay on 786-0 renal was more than 100 µM; in the assay with A549 NSCLC, more than 100 µM; with BT-549 breast it was more than 100 µM; in the assay on HOP-92 NSCLC, more than 100 µM; with LOX IMVI melanoma it was 11.3 µM; in the assay on MOLT-4 leukemia, more than 100 µM. For the same compound, the TGI with OVCAR-5 ovarian is more than 100 µM; in the assay on SK-MEL-2 melanoma, 6.6 µM; in the assay on SW-620 colon, more than 100 µM.
For `CC(C)=CC1=C2C3=C(C(=O)C4(O)Oc5c(C)c6c7c(c5OC24C)[C@@H](C)CC[C@@H]7[C@@H](C)C[C@H]6C=C(C)C)C(C)CCC3C(C)C1` (some centres undefined), the GI50 with 786-0 renal, in the assay on A549 NSCLC, in the assay with BT-549 breast, in the assay with LOX IMVI melanoma, in the assay on MOLT-4 leukemia and with OVCAR-5 ovarian was more than 100 µM each time. For the same compound, the GI50 in the assay with RPMI-8226 leukemia, with SK-MEL-2 melanoma and in the assay with SW-620 colon was more than 100 µM in each case. Also, the TGI in the assay on 786-0 renal, in the assay with A549 NSCLC, in the assay on BT-549 breast, with LOX IMVI melanoma, in the assay with MOLT-4 leukemia and in the assay on OVCAR-5 ovarian was more than 100 µM throughout. The TGI with RPMI-8226 leukemia, with SK-MEL-2 melanoma and in the assay with SW-620 colon was more than 100 µM throughout.
As to `CCCSS[C@H]1NC(=O)[C@H]1NC(=O)COc1ccccc1`, the TGI in the assay with 786-0 renal is 31.5 µM; in the assay with A549 NSCLC, 67.3 µM; in the assay with HOP-92 NSCLC, 24.4 µM; with LOX IMVI melanoma, 30.2 µM; with MOLT-4 leukemia, 13.2 µM; with OVCAR-5 ovarian it was more than 100 µM. Further, the TGI in the assay with RPMI-8226 leukemia stood at 88.1 µM; in the assay on SK-MEL-2 melanoma it was 33.5 µM; in the assay on SW-620 colon, 18.2 µM.
